Test results: US7491819B1 (priority 2004, dated 2009)
Like-named read-outs stand apart in the source and are kept apart here.

How the values were obtained:
HIV-integrase = target: T1, HIV-integrase (Human immunodeficiency virus type 1 group M subtype B, UniProt P12497); experiment: HIV-Integrase Inhibition Activity (SPA bead strand-transfer assay); assay type: biochemical
T1 construct: Recombinant integrase (0.26 ng) was incubated with the beads
Procedure, shortened: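 Biotin-labelled substrate DNA (5 pmole) bound to streptavidin SPA beads, preloaded with recombinant integrase (0.26 ng) for 90 min at 37° C, then washed. Inhibitors and 0.1 fmol P33-labelled target DNA added; reaction stopped with 10 mM EDTA. Integration read as scintillation CPM.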

NL-Rluc virus = experiment: Inhibition of HIV replication (recombinant NL-Rluc virus, luciferase); assay type: cell-based
[1] = Table 1, read-out: Activity (HIV-integrase inhibition, IC50 class)
[2] = Table 2a, read-out: HIV-Integrase Inhibition Activity
[3] = Human immunodeficiency virus 1, read-out: Inhibition of HIV replication
[4] = Human immunodeficiency virus 1, Table 2, serum condition not stated (10% FBS, 15 mg/ml human serum albumin/10% FBS or 40% human serum/5% FBS), at least 2 experiments, read-out: Activity (inhibition of HIV replication, EC50 class)

Compound	IC50 (HIV-integrase; [1]) [µM]	melting point	IC50 (HIV-integrase; [2]) [µM]	EC50 (NL-Rluc virus; [3]) [µM]	IC50 (HIV-integrase) [µM]	EC50 (NL-Rluc virus; [4]) [µM]
CCOP(=O)(OCC)c1cc(F)ccc1CNC(=O)c1nc2n(c(=O)c1O)CCOC2(C)C [Example 213, Phosphonic acid, [5-fluoro-2-[[[(4,6,7,9-tetrahydro-3-hydroxy-9,9-dimethyl-4-oxopyrimido[2,1-c][1,4]oxazin-2-yl)carbonyl]amino]methyl]phenyl]-, diethyl ester]	0.002 to 0.1	124 °C				
CC1OCCn2c1nc(C(=O)NCc1ccc(F)cc1)c(O)c2=O (stereo not shown) [Example 4, Pyrimido[2,1-c][1,4]oxazine-2-carboxamide, N-[(4-fluorophenyl)methyl]-4,6,7,9-tetrahydro-3-hydroxy-9-methyl-4-oxo-]	0.002 to 0.1	165 to 167 °C				
CCC1OCCn2c1nc(C(=O)NCc1ccc(F)cc1-n1cnc(C)n1)c(O)c2=O (stereo not shown) [Example 284, Pyrimido[2,1-c][1,4]oxazine-2-carboxamide, 9-ethyl-N-[[4-fluoro-2-(3-methyl-1H-1,2,4-triazol-1-yl)phenyl]methyl]-4,6,7,9-tetrahydro-3-hydroxy-4-oxo-e]		213 °C	0.002 to 0.1	0.003 to 0.1		
CC1OCCn2c1nc(C(=O)NCc1ccc(Cl)c(Cl)c1)c(O)c2=O (stereo not shown) [Example 6, Pyrimido[2,1-c][1,4]oxazine-2-carboxamide, N-[(3,4-dichlorophenyl)methyl]-4,6,7,9-tetrahydro-3-hydroxy-9-methyl-4-oxo-]	0.002 to 0.1	192 °C				
Cn1nccc1-c1cc(F)ccc1CNC(=O)c1nc2n(c(=O)c1O)CCOC2(C)C [Example 287, Pyrimido[2,1-c][1,4]oxazine-2-carboxamide, N-[[4-fluoro-2-(1-methyl-1H-pyrazol-5-yl)phenyl]methyl]-4,6,7,9-tetrahydro-3-hydroxy-9,9-dimethyl-4-oxo-]		221 °C	0.002 to 0.1	0.003 to 0.1		
Cc1ncn(-c2ccccc2CNC(=O)c2nc3n(c(=O)c2O)CCOC3(C)C)n1 [Example 288, Pyrimido[2,1-c][1,4]oxazine-2-carboxamide, 4,6,7,9-tetrahydro-3-hydroxy-9,9-dimethyl-N-[[2-(3-methyl-1H-1,2,4-triazol-1-yl)phenyl]methyl]-4-oxo-e]		234 °C (dec.)	0.002 to 0.1	0.003 to 0.1		
Cc1cc(CNC(=O)c2nc3n(c(=O)c2O)CCOC3C)ccc1F (stereo not shown) [Example 5, Pyrimido[2,1-c][1,4]oxazine-2-carboxamide, N-[(4-fluoro-3-methylphenyl)methyl]-4,6,7,9-tetrahydro-3-hydroxy-9-methyl-4-oxo-]	0.002 to 0.1	134 °C				
Cc1cc(CNC(=O)c2nc3n(c(=O)c2O)CCOC3)ccc1F [Example 2, Pyrimido[2,1-c[]1,4]oxazine-2-carboxamide, N-[(4-fluoro-3-methylphenyl)methyl]-4,6,7,9-tetrahydro-3-hydroxy-4-oxo-]	0.002 to 0.1	206 to 208 °C				
Cc1cnnn1-c1cc(F)ccc1CNC(=O)c1nc2n(c(=O)c1O)CCOC2(C)C [Example 296, Pyrimido[2,1-c][1,4]oxazine-2-carboxamide, N-[[4-fluoro-2-(5-methyl-1H-1,2,3-triazol-1-yl)phenyl]methyl]-4,6,7,9-tetrahydro-3-hydroxy-9,9-dim ethyl-4-oxo-]			0.002 to 0.1	0.003 to 0.1		
CC1OCCn2c1nc(C(=O)NCc1ccc(F)c(Cl)c1)c(O)c2=O (stereo not shown) [Example 7, Pyrimido[2,1-c][1,4]oxazine-2-carboxamide, N-[(3-chloro-4-fluorophenyl)methyl]-4,6,7,9-tetrahydro-3-hydroxy-9-methyl-4-oxo-]	0.002 to 0.1	172 °C				
CC1(C)COP(=O)(c2cc(F)ccc2CNC(=O)c2nc3n(c(=O)c2O)CCOC3(C)C)OC1 [Example 294, Pyrimido[2,1-c][1,4]oxazine-2-carboxamide, N-[[2-(5,5-dimethyl-2-oxido-1,3,2-dioxaphosphorinan-2-yl)-4-fluorophenyl]methyl]-4,6,7,9-tetrahydro-3-hydroxy-9,9-dimethyl-4-oxo-]			0.002 to 0.1	0.003 to 0.1		
CC1(C)OCCn2c1nc(C(=O)NCc1ccc(F)cc1P(=O)(O)O)c(O)c2=O [Example 289, Phosphonic acid, [5-fluoro-2-[[[(4,6,7,9-tetrahydro-3-hydroxy-9,9-dimethyl-4-oxopyrimido[2,1-c][1,4]oxazin-2-yl)carbonyl]amino]methyl]phenyl]-]			0.002 to 0.1	> 1		
COP(=O)(O)c1cc(F)ccc1CNC(=O)c1nc2n(c(=O)c1O)CCOC2(C)C [Example 290, Phosphonic acid, [5-fluoro-2-[[[(4,6,7,9-tetrahydro-3-hydroxy-9,9-dimethyl-4-oxopyrimido[2,1-c][1,4]oxazin-2-yl)carbonyl]amino]methyl]phenyl]-, monomethyl ester]			0.002 to 0.1	0.1 to 1		
CC1(C)OCCn2c1nc(C(=O)NCc1ccc(F)cc1-n1cccn1)c(O)c2=O [Example 306, Pyrimido[2,1-c][1,4]oxazine-2-carboxamide, N-[[4-fluoro-2-(1H-pyrazol-1-yl)phenyl]methyl]-4,6,7,9-tetrahydro-3-hydroxy-9,9-dimethyl-4-oxo-]			0.002 to 0.1	0.003 to 0.1		
CC(C)(C)c1cn(-c2cc(F)ccc2CNC(=O)c2nc3n(c(=O)c2O)CCOC3(C)C)nn1 [Example 297, Pyrimido[2,1-c][1,4]oxazine-2-carboxamide, N-[[2-[4-(1,1-dimethylethyl)-1H-1,2,3-triazol-1-yl]-4-fluorophenyl]methyl]-4,6,7,9-tetrahydro-3-hydroxy-9,9-dimethyl-4-oxo-]			0.002 to 0.1	0.003 to 0.1		
CC(=O)OCCS(=O)(=O)c1cc(F)ccc1CNC(=O)c1nc2n(c(=O)c1O)CCOC2(C)C [Example 310, Pyrimido[2,1-c][1,4]oxazine-2-carboxamide, N-[[2-[[2-(acetyloxy)ethyl]sulfonyl]-4-fluorophenyl]methyl]-4,6,7,9-tetrahydro-3-hydroxy-9,9-dimethyl-4-oxo-]			0.002 to 0.1	0.003 to 0.1		
Cn1ccc(-c2cc(F)ccc2CNC(=O)c2nc3n(c(=O)c2O)CCOC3(C)C)n1 [Example 286, Pyrimido[2,1-c][1,4]oxazine-2-carboxamide, N-[[4-fluoro-2-(1-methyl-1H-pyrazol-3-yl)phenyl]methyl]-4,6,7,9-tetrahydro-3-hydroxy-9,9-dimethyl-4-oxo-]		220 °C	0.002 to 0.1	0.003 to 0.1		
CCC1(C)OCCn2c1nc(C(=O)NCc1ccc(F)cc1S(=O)(=O)N(C)C)c(O)c2=O (stereo not shown) [Example 315, Pyrimido[2,1-c][1,4]oxazine-2-carboxamide, N-[[2-[(dimethylamino)sulfonyl]-4-fluorophenyl]methyl]-9-ethyl-4,6,7,9-tetrahydro-3-hydroxy-9-methyl-4-oxo-]			0.002 to 0.1	0.003 to 0.1		
CC1(C)OCCn2c1nc(C(=O)NCc1ccc(F)cc1-n1cc(CO)nn1)c(O)c2=O [Example 299, Pyrimido[2,1-c][1,4]oxazine-2-carboxamide, N-[[4-fluoro-2-[4-(hydroxymethyl)-1H-1,2,3-triazol-1-yl]phenyl]methyl]-4,6,7,9-tetrahydro-3-hydroxy-9,9-dimethyl-4-oxo-]			0.002 to 0.1	0.003 to 0.1		
O=C(NCc1ccc(F)cc1)c1nc2n(c(=O)c1O)CCOC2 [Example 1, Pyrimido[2,1-c][1,4]oxazine-2-carboxamide, N-[(4-fluorophenyl)methyl]-4,6,7,9-tetrahydro-3-hydroxy-4-oxo-]	0.002 to 0.1	211 °C				
Cc1ncnn1-c1cc(F)ccc1CNC(=O)c1nc2n(c(=O)c1O)CCCOC2(C)C [Example 316, 6H-Pyrimido[2,1-c][1,4]oxazepine-2-carboxamide, N-[[4-fluoro-2-(5-methyl-1H-1,2,4-triazol-1-yl)phenyl]methyl]-4,7,8,10-tetrahydro-3-hydroxy-10,10-dimethyl-4-oxo-]			0.002 to 0.1	0.003 to 0.1		
CN(C)C(=O)Oc1cc(F)ccc1CNC(=O)c1nc2n(c(=O)c1O)CCOC2(C)C [Example 96, Carbamic acid, dimethyl-, 5-fluoro-2-[[[(4,6,7,9-tetrahydro-3-hydroxy-9,9-dimethyl-4-oxopyrimido[2,1-c][1,4]oxazin-2-yl)carbonyl]amino]methyl]phenyl ester]					0.002 to 0.1	0.003 to 0.1
COc1ncccc1-c1cc(F)ccc1CNC(=O)c1nc2n(c(=O)c1O)CCOC2(C)C [Example 76, Pyrimido[2,1-c][1,4]oxazine-2-carboxamide, N-[[4-fluoro-2-(2-methoxy-3-pyridinyl)phenyl]methyl]-4,6,7,9-tetrahydro-3-hydroxy-9,9-dimethyl-4-oxo-]	0.002 to 0.1	227 °C				
CC1(C)OCCn2c1nc(C(=O)NCc1cccc(C3(C(F)(F)F)NN3)c1)c(O)c2=O [Example 104, Pyrimido[2,1-c][1,4]oxazine-2-carboxamide, 4,6,7,9-tetrahydro-3-hydroxy-9,9-dimethyl-4-oxo-N-[[3-[3-(trifluoromethyl)-3-diaziridinyl]-phenyl]-methyl]-]					0.1 to 1	0.1 to 1
